Test results: paper PMC10165273, “Itch receptor MRGPRX4 interacts with the receptor activity–modifying proteins” (The Journal of Biological Chemistry, 2023)
Several values for one entry are separate records, joined by “and”; a condition that tells them apart may be missing. Identical values can stand only once. Like-named read-outs stand apart in the source and are kept apart here.

Columns and labels:
MRGPRX4 + RAMP3 = biological target: T1, MRGPRX4 + RAMP3 (Homo sapiens, UniProt Q96LA9); experiment: IP1 accumulation, MRGPRX4 coexpressed with RAMP3; assay type: cell-based; parameters: key to IP1 Basal / response to agonist, X4:ramp3.I:0.25 / response to agonist, X4:ramp3.I:0.5 / response to agonist, X4:ramp3.I:1: % IP1; unstimulated mock = 0%, fully stimulated MRGPRX4 = 100%; conditions: for activation at 0.032 µM / activation at 100 µM / activation at 20 µM / activation at 4 µM / activation at 0.8 µM / activation at […]: 2 h, Fig S3f, read-out: IP1 accumulation; for activation at 0.032 µM: log [DCA] (M) -7.49485; for activation at 100 µM: log [DCA] (M) -4; for activation at 20 µM: log [DCA] (M) -4.69897; for activation at 4 µM: log [DCA] (M) -5.39794; for activation at 0.8 µM: log [DCA] (M) -6.09691; for activation at […]: log [DCA] (M) -6.79588
T1 construct: expressed in transfected cells; host or cells: HEK293T
T1 sequence (Q96LA9 whole entry): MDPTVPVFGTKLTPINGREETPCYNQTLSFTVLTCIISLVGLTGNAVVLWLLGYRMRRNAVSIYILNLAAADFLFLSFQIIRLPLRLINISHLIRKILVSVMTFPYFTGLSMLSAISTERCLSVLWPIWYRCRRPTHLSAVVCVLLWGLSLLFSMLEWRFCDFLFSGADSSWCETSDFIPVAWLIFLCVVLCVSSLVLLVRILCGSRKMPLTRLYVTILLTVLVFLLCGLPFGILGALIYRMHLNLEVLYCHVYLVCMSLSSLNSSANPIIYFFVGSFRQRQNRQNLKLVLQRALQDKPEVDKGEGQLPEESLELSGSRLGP
Protocol: (§1) HEK293T cells were transfected with 1 pg/cell of MRGPRX4 DNA, and the amount of DNA was kept constant at 2 pg/cell with pcDNA3.1(+) empty vector, unless otherwise specified. Twenty four hours after transfection, IP1 assay was performed as previously described ([51]). When applicable, cells were treated with 1 μM YM254890 (YM) or different concentrations of U73122 for 1 h prior to addition of agonist or buffer. After incubation for 2 h, HTRF reagents and IP1 calibration standards were added and incubated for 2 h in the dark at room temperature. Time-resolved fluorescence signals were read on the BioTek Synergy NEO-TRF Hybrid multi-mode reader (BioTek Instruments). All data were carried out in three independent experiments with three technical replicate each.
For RAMP DNA titration assay, HEK293T cells were cotransfected with a constant amount of 1 pg/cell of FLAG-MRGPRX4-GFP10-1D4 to which a serial dilution of 1, 0.75, 0.5, 0.25, or 0 pg/cell of each HA-RAMP-OLLAS was added. For a homogenous transfection of MRGPRX4, a master mix of MRGPRX4 DNA was made prior to addition of the RAMP DNA. […]
(§2) Data reduction, standard calibration, and transformation of HTRF data were performed as previously described ([51]). Normalized IP1 values were calculated relative to the unstimulated mock-transfected cells (set to 0%) and fully stimulated MRGPRX4 (alone if applicable) (set to 100%).

[1] = tested on: mock-transfected HEK293T cells; experiment: IP1 accumulation, mock-transfected cells; assay type: cell-based, human; parameters: IP1 Basal / IP1 span / IP1 Emax / IP1 accumulation, dose-response (Figure 1a) / IP1 accumulation with YM (Figure 1c) / IP1 accumulation: unit not given here; conditions: for IP1 accumulation, dose-response (Figure 1a): pcDNA (mock), individual replicates; for IP1 accumulation: mock, Fig S3d-f
Protocol: as §1
Validation of CALCRL constructs was assayed by cotransfecting HEK293T cells with different tagged versions of CALCRL alone or with each RAMP and with the promiscuous Gqs5 Gq chimera protein, at a respective DNA ratio of 1:1:0.5. Gqs5 is an engineered Gq protein containing the last five amino acid residues of Gs, which allows Gs-coupled GPCRs to signal through Gq downstream signaling pathways ([55]). The homogenous transfection method described above was used for all DNA mixes. CALCRL:RAMP2:Gqs5-transfected cells served as positive control for RAMP functionality.
as §2

[2] = MRGPRX4 + RAMP3 0.25 pg (Fig. S3), normalized per agonist
[3] = MRGPRX4 + RAMP3 0.5 pg (Fig. S3), normalized per agonist
[4] = MRGPRX4 + RAMP3 1 pg (Fig. S3), normalized per agonist
[5] = MRGPRX4 + RAMP3 2 pg (Fig. S3), normalized per agonist
[6] = Mock, MRGPRX4 construct comparison (Fig. S4B,C-F)

C[C@H](CCC(=O)O)[C@H]1CC[C@H]2[C@@H]3CC[C@@H]4C[C@H](O)CC[C@]4(C)[C@H]3C[C@H](O)[C@]12C [DCA, deoxycholic acid]
activation at 0.032 µM (MRGPRX4 + RAMP3; ratio MRGPRX4:RAMP3 1:0.25): 31.5% | activation at 100 µM (MRGPRX4 + RAMP3; ratio MRGPRX4:RAMP3 1:0.5): 90.4% | activation at 20 µM (MRGPRX4 + RAMP3; ratio MRGPRX4:RAMP3 1:0.5): 53.8% | activation at 4 µM (MRGPRX4 + RAMP3; ratio MRGPRX4:RAMP3 1:0.5): 33.6% | activation at 0.8 µM (MRGPRX4 + RAMP3; ratio MRGPRX4:RAMP3 1:0.5): 22% | activation at […] (MRGPRX4 + RAMP3; ratio MRGPRX4:RAMP3 1:0.5): 21.2% | activation at 0.032 µM (MRGPRX4 + RAMP3; ratio MRGPRX4:RAMP3 1:0.5): 21.7% | activation at 100 µM (MRGPRX4 + RAMP3; ratio MRGPRX4:RAMP3 1:1): 97.9% | activation at 20 µM (MRGPRX4 + RAMP3; ratio MRGPRX4:RAMP3 1:1): 49.2% | activation at 4 µM (MRGPRX4 + RAMP3; ratio MRGPRX4:RAMP3 1:1): 28.3% | activation at 0.8 µM (MRGPRX4 + RAMP3; ratio MRGPRX4:RAMP3 1:1): 19.5% | activation at […] (MRGPRX4 + RAMP3; ratio MRGPRX4:RAMP3 1:1): 19.6% | activation at 0.032 µM (MRGPRX4 + RAMP3; ratio MRGPRX4:RAMP3 1:1): 18.9% | activation at 20 µM (MRGPRX4 + RAMP3; ratio MRGPRX4:RAMP3 1:2): 48.1% | activation at 4 µM (MRGPRX4 + RAMP3; ratio MRGPRX4:RAMP3 1:2): 23.1% | activation at […] (MRGPRX4 + RAMP3; ratio MRGPRX4:RAMP3 1:2): 16.8% | activation at 0.032 µM (MRGPRX4 + RAMP3; ratio MRGPRX4:RAMP3 1:2): 15.3% | Emax (MRGPRX4 + RAMP3; Figure 4a bottom, DNA ratio MRGPRX4:RAMP3 1:0.75, MRGPRX4 alone = 100, read-out: efficacy): 74.9% | response to agonist, X4:ramp3.I:0.25 (MRGPRX4 + RAMP3; Figure 4c-f, agonist 100µM, X4:ramp3 1:0.25, MRGPRX4 = 100): 83.1455 and 78.9266 | response to agonist, X4:ramp3.I:0.5 (MRGPRX4 + RAMP3; Figure 4c-f, agonist 100µM, X4:ramp3 1:0.5, MRGPRX4 = 100): 72.4625 and 76.3406 | response to agonist, X4:ramp3.I:1 (MRGPRX4 + RAMP3; Figure 4c-f, agonist 100µM, X4:ramp3 1:1, MRGPRX4 = 100): 72.2618 and 56.5732 | IP1 Basal (MRGPRX4 + RAMP3; [2]): 26.80 | IP1 span (top minus basal of the concentration-response fit) (MRGPRX4 + RAMP3; [2]): 84.2% | Emax (MRGPRX4 + RAMP3; MRGPRX4 + RAMP3 0.25 pg (Fig. S3), normalized per agonist, read-out: IP1 Emax): 111% | IP1 Basal (MRGPRX4 + RAMP3; [3]): 21.60 | IP1 span (top minus basal of the concentration-response fit) (MRGPRX4 + RAMP3; [3]): 78.8% | Emax (MRGPRX4 + RAMP3; MRGPRX4 + RAMP3 0.5 pg (Fig. S3), normalized per agonist, read-out: IP1 Emax): 100% | IP1 Basal (MRGPRX4 + RAMP3; [4]): 23.28 | IP1 span (top minus basal of the concentration-response fit) (MRGPRX4 + RAMP3; [4]): 92.1% | Emax (MRGPRX4 + RAMP3; MRGPRX4 + RAMP3 1 pg (Fig. S3), normalized per agonist, read-out: IP1 Emax): 115% | IP1 Basal (MRGPRX4 + RAMP3; [5]): 14.52 | IP1 span (top minus basal of the concentration-response fit) (MRGPRX4 + RAMP3; [5]): 85.8% | Emax (MRGPRX4 + RAMP3; MRGPRX4 + RAMP3 2 pg (Fig. S3), normalized per agonist, read-out: IP1 Emax): 100% | Emax ([1]; Homo sapiens, HEK-293T, Mock, MRGPRX4 construct comparison (Fig. S4B,C-F)): 0.236% | IP1 Basal [1, 6]: 2.330 | IP1 span [1, 6]: -2.094 | IP1 accumulation, dose-response (Figure 1a) ([1]; log [agonist] (M) -4): 0.2103 and 0.3669 and 0.293 and -0.07837 and 0.1649 and -0.08879 and 0.2113 and -0.2385 and -0.6593 and -0.4375 and -0.5166 and -0.9554 | IP1 accumulation, dose-response (Figure 1a) ([1]; log [agonist] (M) -4.95424): 0.553 and 0.2642 and 0.3806 and 0.3517 and 0.05455 and 0.247 and 0.3525 and -0.3352 and -0.4263 and -0.5038 and 0.5136 and -0.7508 | IP1 accumulation, dose-response (Figure 1a) ([1]; log [agonist] (M) -5.90849): 0.1227 and 0.5487 and 0.6873 and 0.2386 and 0.02519 and 0.3705 and 0.5521 and -0.1483 and -0.4243 and -0.2808 and 0.06832 and -0.3071 | IP1 accumulation, dose-response (Figure 1a) ([1]; log [agonist] (M) -6.86273): 0.3536 and 0.9227 and 0.8938 and 0.5392 and 0.2564 and 0.9514 and 0.9872 and 0.3929 and 0.5666 and 0.2655 and 0.4716 and 0.3728 | IP1 accumulation ([1]; log [DCA] (M) -4): 1.182 and 0.9551 and 1.627 | IP1 accumulation ([1]; log [DCA] (M) -5.39794): 0.3631 and 0.268 and 0.3023
